Laboratory results taken from patent publication US20140024638A1, “TREATMENT OF COGNITIVE DYSFUNCTION IN SCHIZOPHRENIA” (TARGACEPT, INC., priority 2011, published 2014).

How the values were obtained:
[1] = tested on: patients with schizophrenia; test: CogState Identification task (attention), Phase 2 trial; type: in vivo, human; conditions: total population, subjects meeting data integrity criteria
Protocol: (§1) The double blind, placebo controlled Phase 2 trial was conducted at 7 sites in the United States and 12 sites in India. […] Of the randomized patients, approximately 69% were male and approximately 46% were users of tobacco products. […] The primary efficacy outcome measure was GMLT, and the trial included a number of other scales as secondary efficacy outcome measures.

[2] = tested on: patients with schizophrenia; test: CogState Detection task (psychomotor speed), Phase 2 trial; type: in vivo, human; conditions: for CogState Detection: Mean (SE): tobacco users meeting data integrity criteria; for CogState Detection: Mean (SEM): total population, subjects meeting data integrity criteria
Protocol: as §1

[3] = tested on: patients with schizophrenia; test: Clinical Global Impression - Global Improvement (CGI-I, CGI Global Change), Phase 2 trial; type: in vivo, human; conditions: for CGI Global Change: Adjusted Mean / CGI Global Change: Mean Difference ± SE between TC-5619 and Placebo (Placebo-TC5619): All Patients; for CGI-I: Mean (SE): tobacco users; for CGI-I: Mean (SEM): total population
Protocol: as §1

[4] = tested on: patients with schizophrenia; test: Phase 2 clinical proof of concept trial, overall efficacy; type: in vivo, human; conditions: Phase 2 trial
Protocol: as §1
(§2) The GMLT is a computerized test designed to assess executive function (the ability to organize cognitive processes, including the ability to plan, prioritize, stop and start activities, shift from one activity to another activity and to monitor one's own behavior). Impaired executive function is thought to be an important aspect of cognitive dysfunction in schizophrenia.

[5] = tested on: patients with schizophrenia; test: CogState 1-Card Learning task (visual learning), Phase 2 trial; type: in vivo, human; conditions: for CogState 1-Card Learning: Mean (SE): tobacco users meeting data integrity criteria; for CogState 1-Card Learning: Mean (SEM): total population, subjects meeting data integrity criteria
Protocol: as §1

[6] = tested on: healthy volunteers; test: phase 1 trials in healthy volunteers; type: in vivo, human
[7] = molecular target: α7 NNR receptor (Homo sapiens, UniProt P36544); test: agonism at the α7 NNR receptor; type: biochemical
[8] = tested on: patients with schizophrenia; test: Groton Maze Learning Task (GMLT) of the CogState Schizophrenia Battery, Phase 2 trial; type: in vivo, human; conditions: for GML (Total Error) LOG: Adjusted Mean / GML (Total Error) LOG: Mean Difference ± SE between TC-5619 and Placebo (Placebo-TC5619): All Patients; for GMLT primary efficacy outcome measure: result against protocol criteria: positive outcome = superiority over placebo, one-sided p-value <0.10 after adjusting for 3 comparisons (Weeks 4, 8, 12), adjusted p-value=0.054, unadjusted p 0.018 at 4 weeks, 0.041 at 12 weeks; for GMLT log (10) transformed: Mean (SE): tobacco users
Protocol: as §1, §2

[9] = listed as (2S,3R)—N-(2-((3-pyridinyl)methyl)-1-azabicyclo[2.2.2]oct-3-yl)benzofuran-2-carb

α7 NNR receptor, sequence (P36544 23-502): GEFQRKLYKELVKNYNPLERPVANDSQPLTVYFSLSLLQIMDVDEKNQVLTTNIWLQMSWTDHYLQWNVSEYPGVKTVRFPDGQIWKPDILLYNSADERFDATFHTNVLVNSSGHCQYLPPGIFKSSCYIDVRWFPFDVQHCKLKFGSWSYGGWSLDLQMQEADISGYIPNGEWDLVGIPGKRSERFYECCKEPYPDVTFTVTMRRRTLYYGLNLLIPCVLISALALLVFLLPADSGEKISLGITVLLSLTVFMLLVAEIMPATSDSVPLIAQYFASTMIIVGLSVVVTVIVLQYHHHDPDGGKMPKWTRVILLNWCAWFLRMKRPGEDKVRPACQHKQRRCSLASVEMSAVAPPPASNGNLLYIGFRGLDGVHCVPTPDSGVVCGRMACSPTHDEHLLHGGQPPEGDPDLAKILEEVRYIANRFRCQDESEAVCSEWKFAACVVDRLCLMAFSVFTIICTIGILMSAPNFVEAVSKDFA

## O=C(N[C@@H]1C2CCN(CC2)[C@H]1Cc1cccnc1)c1cc2ccccc2o1 (single isomer, unassigned) [TC-5619]
[1]; Week 4, 1 mg daily, 1-tailed p = 0.311
  CogState Identification: Mean (SEM): −0.005 (0.011); p = 0.311
[1]; Week 8, 5 mg daily, 1-tailed p = 0.111
  CogState Identification: Mean (SEM): −0.014 (0.012); p = 0.111
[1]; Week 12, 25 mg daily, 1-tailed p = 0.063
  CogState Identification: Mean (SEM): −0.017 (0.011); p = 0.063
[2]; in vivo
  CogState detection (psychomotor speed), result in words: statistically significant results of improvement
[2]; Week 4, 1 mg daily, 1-tailed p = 0.254
  CogState Detection: Mean (SE): −0.014 (0.021); p = 0.254
[2]; Week 8, 5 mg daily, 1-tailed p = 0.491
  CogState Detection: Mean (SE): −0.000 (0.021); p = 0.491
[2]; Week 12, 25 mg daily, 1-tailed p = 0.265
  CogState Detection: Mean (SE): −0.013 0.021); p = 0.265 ^
[2]; Week 4, 1 mg daily, 1-tailed p = 0.693
  CogState Detection: Mean (SEM): 0.007 (0.015); p = 0.693
[2]; Week 8, 5 mg daily, 1-tailed p = 0.650
  CogState Detection: Mean (SEM): 0.006 (0.014) p = 0.650^
[2]; Week 12, 25 mg daily, 1-tailed p = 0.567
  CogState Detection: Mean (SEM): 0.002 (0.015) p = 0.567^
[3]; Week 1, 1 mg daily, SE 0.15, placebo 3.80
  CGI Global Change: Adjusted Mean: 3.77
[3]; Week 1, 1 mg daily, one-sided 90% CI (−0.06, ∞), one-sided P 0.3434
  CGI Global Change: Mean Difference ± SE between TC-5619 and Placebo (Placebo-TC5619): 0.03 ± 0.07
[3]; Week 4, 1 mg daily, SE 0.16, placebo 3.64
  CGI Global Change: Adjusted Mean: 3.49
[3]; Week 4, 1 mg daily, one-sided 90% CI (0.04, ∞), one-sided P 0.0485
  CGI Global Change: Mean Difference ± SE between TC-5619 and Placebo (Placebo-TC5619): 0.15 ± 0.09
[3]; Week 8, 5 mg daily, SE 0.16, placebo 3.30
  CGI Global Change: Adjusted Mean: 3.22
[3]; Week 8, 5 mg daily, one-sided 90% CI (−0.07, ∞), one-sided P 0.2533
  CGI Global Change: Mean Difference ± SE between TC-5619 and Placebo (Placebo-TC5619): 0.08 ± 0.12
[3]; Week 12, 25 mg daily, SE 0.17, placebo 3.18
  CGI Global Change: Adjusted Mean: 3.03
[3]; Week 12, 25 mg daily, one-sided 90% CI (−0.03, ∞), one-sided P 0.1502
  CGI Global Change: Mean Difference ± SE between TC-5619 and Placebo (Placebo-TC5619): 0.15 ± 0.14
[3]; secondary outcome measure, investigator assessment of overall response
  Clinical Global Impression - Global Improvement, result in words: encouraging efficacy signals
[3]; Week 4, 1 mg daily, 1-tailed p = 0.047
  CGI-I: Mean (SE): 0.25 (0.14); p = 0.047
[3]; Week 8, 5 mg daily, 1-tailed p = 0.075
  CGI-I: Mean (SE): 0.24 (0.16); p = 0.075
[3]; Week 12, 25 mg daily, 1-tailed p = 0.189
  CGI-I: Mean (SE): 0.18 (0.20); p = 0.189
[3]; Week 4, 1 mg daily, 1-tailed p = 0.049
  CGI-I: Mean (SEM): 0.15 (0.09); p = 0.049
[3]; Week 8, 5 mg daily, 1-tailed p = 0.253
  CGI-I: Mean (SEM): 0.08 (0.12); p = 0.253
[3]; Week 12, 25 mg daily, 1-tailed p = 0.150
  CGI-I: Mean (SEM): 0.15 (0.14); p = 0.150
[4]
  efficacy by tobacco use: showed efficacy primarily in tobacco users
[4]; add-on to quetiapine or risperidone, 12 weeks, 1/5/25 mg daily
  efficacy in Cognitive Deficits in Schizophrenia (GMLT, SANS, CGI-Global, SGI-Cog, CogState objective cognitive endpoints): positive efficacy
[5]; in vivo
  CogState 1-card learning (visual learning), result in words: statistically significant results of improvement
[5]; Week 4, 1 mg daily, 1-tailed p = 0.615
  CogState 1-Card Learning: Mean (SE): −0.008 (0.027); p = 0.615
[5]; Week 8, 5 mg daily, 1-tailed p = 0.778
  CogState 1-Card Learning: Mean (SE): −0.021; 0.028); p = 0.778
[5]; Week 12, 25 mg daily, 1-tailed p = 0.338
  CogState 1-Card Learning: Mean (SE): 0.012 (0.028); p = 0.338
[5]; Week 4, 1 mg daily, 1-tailed P = 0.660
  CogState 1-Card Learning: Mean (SEM): −0.008 (0.019); P = 0.660 ^
[5]; Week 8, 5 mg daily, 1-tailed P = 0.899
  CogState 1-Card Learning: Mean (SEM): −0.024 (0.019); P = 0.899 ^
[5]; Week 12, 25 mg daily, 1-tailed P = 0.841
  CogState 1-Card Learning: Mean (SEM): −0.019 (0.020); P = 0.841 ^
[6]; 6.7 mg administered
  attention: robust improvement in attention
[6]; phase 1 trials
  tolerability: generally well tolerated
[7]; [9]
  agonist character at the α7 NNR: selective alpha7 NNR agonist
[7]; listed as Compound A
  agonist character at the α7 NNR: highly selective, full agonist
[7]; α7 NNR receptor
  separation between EC50 and the IC50 (for residual inhibition): good separation
[8]; Week 1, 1 mg daily, SE 0.01, placebo −0.02
  GML (Total Error) LOG: Adjusted Mean: −0.01
[8]; Week 1, 1 mg daily, one-sided 90% CI (−0.03, ∞), one-sided P 0.6709
  GML (Total Error) LOG: Mean Difference ± SE between TC-5619 and Placebo (Placebo-TC5619): −0.01 ± 0.02
[8]; Week 4, 1 mg daily, SE 0.02, placebo 0.02
  GML (Total Error) LOG: Adjusted Mean: −0.03
[8]; Week 4, 1 mg daily, one-sided 90% CI (0.02, ∞), one-sided P 0.0180
  GML (Total Error) LOG: Mean Difference ± SE between TC-5619 and Placebo (Placebo-TC5619): 0.05 ± 0.02
[8]; Week 8, 5 mg daily, SE 0.02, placebo −0.02
  GML (Total Error) LOG: Adjusted Mean: −0.05
[8]; Week 8, 5 mg daily, one-sided 90% CI (−0.00, ∞), one-sided P 0.1308
  GML (Total Error) LOG: Mean Difference ± SE between TC-5619 and Placebo (Placebo-TC5619): 0.02 ± 0.02
[8]; Week 12, 25 mg daily, SE 0.02, placebo −0.02
  GML (Total Error) LOG: Adjusted Mean: −0.06
[8]; Week 12, 25 mg daily, one-sided 90% CI (0.01, ∞), one-sided P 0.0405
  GML (Total Error) LOG: Mean Difference ± SE between TC-5619 and Placebo (Placebo-TC5619): 0.04 ± 0.02
[8]; non-users
  GMLT activity in non-users of tobacco: no activity
[8]
  GMLT primary efficacy outcome measure: result against protocol criteria: met the pre-defined success criteria
[8]; [9]
  GMLT primary efficacy outcome measure: result against protocol criteria: met the protocol criteria for a positive result
[8]; subgroup comparison
  GMLT results, patients at study sites in United States as compared to study sites in India: favorable
  GMLT results, tobacco users as compared to non-users: favorable for tobacco users as compared to non-users
[8]; Week 4, 1 mg daily, 1-tailed p = 0.014
  GMLT log (10) transformed: Mean (SE): 0.06 (.03) p = 0.014
[8]; Week 8, 5 mg daily, 1-tailed p = 0.086
  GMLT log (10) transformed: Mean (SE): 0.04 (0.03) p = 0.086
[8]; Week 12, 25 mg daily, 1-tailed p = 0.002
  GMLT log (10) transformed: Mean (SE): 0.07 (0.02) p = 0.002
[8]; total population (tobacco users and non-users), Week 4, 1 mg daily, 1-tailed p = 0.018
  GMLT log (10) transformed: Mean (SEM): 0.05 (0.02); p = 0.018
[8]; total population, Week 8, 5 mg daily, 1-tailed p = 0.131
  GMLT log (10) transformed: Mean (SEM): 0.02 (0.02); p = 0.131
[8]; total population, Week 12, 25 mg daily, 1-tailed p = 0.041
  GMLT log (10) transformed: Mean (SEM): 0.04 (0.02); p = 0.041
